Experimental data published in patent US20090012103A1, “SUBSTITUTED HETEROCYCLIC COMPOUNDS” (priority 2007, published 2009).

Tests used:
hERG potassium channel = hERG potassium channel (Homo sapiens, UniProt Q12809); experiment: hERG screening assay (PatchXpress patch clamp, CHO cell line)
[1] = biological target: wild-type human cardiac sodium channel, hNav1.5 (Homo sapiens, UniProt Q14524); experiment: Late INa screening assay (late sodium current, PatchXpress whole cell patch clamp); assay type: cell-based; settings: compound at 10 μM; read-out: Late INa % blk
wild-type human cardiac sodium channel, hNav1.5, sequence (Q14524 whole entry): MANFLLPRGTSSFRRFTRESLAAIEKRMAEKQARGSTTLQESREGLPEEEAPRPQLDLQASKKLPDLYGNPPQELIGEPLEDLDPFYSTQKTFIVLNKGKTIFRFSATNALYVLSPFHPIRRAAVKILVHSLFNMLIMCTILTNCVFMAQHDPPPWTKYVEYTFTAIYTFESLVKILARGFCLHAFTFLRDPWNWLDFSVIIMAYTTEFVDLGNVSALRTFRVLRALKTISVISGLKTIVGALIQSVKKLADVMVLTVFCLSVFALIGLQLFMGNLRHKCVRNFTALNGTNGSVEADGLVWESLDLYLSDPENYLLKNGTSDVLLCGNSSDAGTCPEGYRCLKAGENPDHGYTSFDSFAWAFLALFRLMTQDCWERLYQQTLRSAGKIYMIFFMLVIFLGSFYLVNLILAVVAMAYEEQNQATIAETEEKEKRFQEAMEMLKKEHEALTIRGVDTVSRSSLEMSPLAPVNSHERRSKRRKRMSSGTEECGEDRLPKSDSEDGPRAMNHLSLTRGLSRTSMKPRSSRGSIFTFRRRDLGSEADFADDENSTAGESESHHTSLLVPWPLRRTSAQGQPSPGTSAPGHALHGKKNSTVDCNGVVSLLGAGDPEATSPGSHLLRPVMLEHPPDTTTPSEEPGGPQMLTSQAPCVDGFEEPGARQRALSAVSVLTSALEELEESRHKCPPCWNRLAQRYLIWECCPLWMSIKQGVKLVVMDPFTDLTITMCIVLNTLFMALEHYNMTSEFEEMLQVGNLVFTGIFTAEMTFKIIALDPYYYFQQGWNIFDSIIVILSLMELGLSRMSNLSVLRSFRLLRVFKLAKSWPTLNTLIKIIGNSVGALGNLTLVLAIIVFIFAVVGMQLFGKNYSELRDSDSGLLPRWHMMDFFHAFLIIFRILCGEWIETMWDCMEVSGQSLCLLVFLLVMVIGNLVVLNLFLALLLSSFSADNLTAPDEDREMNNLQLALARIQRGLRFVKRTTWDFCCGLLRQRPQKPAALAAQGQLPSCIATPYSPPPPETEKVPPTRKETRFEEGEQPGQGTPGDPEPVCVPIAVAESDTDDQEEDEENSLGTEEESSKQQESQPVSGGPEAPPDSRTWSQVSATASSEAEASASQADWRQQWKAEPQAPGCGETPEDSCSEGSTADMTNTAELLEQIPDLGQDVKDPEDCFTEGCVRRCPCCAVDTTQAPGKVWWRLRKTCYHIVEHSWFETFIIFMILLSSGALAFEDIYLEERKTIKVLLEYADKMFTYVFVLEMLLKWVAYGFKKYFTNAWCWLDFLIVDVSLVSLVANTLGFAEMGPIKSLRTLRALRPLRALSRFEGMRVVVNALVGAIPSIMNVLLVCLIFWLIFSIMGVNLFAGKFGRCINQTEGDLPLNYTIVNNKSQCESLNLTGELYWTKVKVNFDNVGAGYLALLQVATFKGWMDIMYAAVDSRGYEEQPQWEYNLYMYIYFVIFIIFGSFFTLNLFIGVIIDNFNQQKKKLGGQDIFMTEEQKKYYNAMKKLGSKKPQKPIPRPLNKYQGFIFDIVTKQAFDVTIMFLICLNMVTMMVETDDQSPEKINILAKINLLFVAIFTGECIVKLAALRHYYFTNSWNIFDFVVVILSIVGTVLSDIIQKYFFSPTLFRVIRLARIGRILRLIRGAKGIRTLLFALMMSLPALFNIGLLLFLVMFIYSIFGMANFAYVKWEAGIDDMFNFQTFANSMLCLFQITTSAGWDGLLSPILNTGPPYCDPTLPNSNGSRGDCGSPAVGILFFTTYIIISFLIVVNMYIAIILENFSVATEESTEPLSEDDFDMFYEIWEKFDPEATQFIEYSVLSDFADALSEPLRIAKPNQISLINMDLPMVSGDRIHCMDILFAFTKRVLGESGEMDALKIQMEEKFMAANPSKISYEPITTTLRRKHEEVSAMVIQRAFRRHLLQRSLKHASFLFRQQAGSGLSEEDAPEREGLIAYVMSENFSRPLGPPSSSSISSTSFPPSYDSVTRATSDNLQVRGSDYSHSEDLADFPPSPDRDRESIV

hERG potassium channel, sequence (Q12809 whole entry): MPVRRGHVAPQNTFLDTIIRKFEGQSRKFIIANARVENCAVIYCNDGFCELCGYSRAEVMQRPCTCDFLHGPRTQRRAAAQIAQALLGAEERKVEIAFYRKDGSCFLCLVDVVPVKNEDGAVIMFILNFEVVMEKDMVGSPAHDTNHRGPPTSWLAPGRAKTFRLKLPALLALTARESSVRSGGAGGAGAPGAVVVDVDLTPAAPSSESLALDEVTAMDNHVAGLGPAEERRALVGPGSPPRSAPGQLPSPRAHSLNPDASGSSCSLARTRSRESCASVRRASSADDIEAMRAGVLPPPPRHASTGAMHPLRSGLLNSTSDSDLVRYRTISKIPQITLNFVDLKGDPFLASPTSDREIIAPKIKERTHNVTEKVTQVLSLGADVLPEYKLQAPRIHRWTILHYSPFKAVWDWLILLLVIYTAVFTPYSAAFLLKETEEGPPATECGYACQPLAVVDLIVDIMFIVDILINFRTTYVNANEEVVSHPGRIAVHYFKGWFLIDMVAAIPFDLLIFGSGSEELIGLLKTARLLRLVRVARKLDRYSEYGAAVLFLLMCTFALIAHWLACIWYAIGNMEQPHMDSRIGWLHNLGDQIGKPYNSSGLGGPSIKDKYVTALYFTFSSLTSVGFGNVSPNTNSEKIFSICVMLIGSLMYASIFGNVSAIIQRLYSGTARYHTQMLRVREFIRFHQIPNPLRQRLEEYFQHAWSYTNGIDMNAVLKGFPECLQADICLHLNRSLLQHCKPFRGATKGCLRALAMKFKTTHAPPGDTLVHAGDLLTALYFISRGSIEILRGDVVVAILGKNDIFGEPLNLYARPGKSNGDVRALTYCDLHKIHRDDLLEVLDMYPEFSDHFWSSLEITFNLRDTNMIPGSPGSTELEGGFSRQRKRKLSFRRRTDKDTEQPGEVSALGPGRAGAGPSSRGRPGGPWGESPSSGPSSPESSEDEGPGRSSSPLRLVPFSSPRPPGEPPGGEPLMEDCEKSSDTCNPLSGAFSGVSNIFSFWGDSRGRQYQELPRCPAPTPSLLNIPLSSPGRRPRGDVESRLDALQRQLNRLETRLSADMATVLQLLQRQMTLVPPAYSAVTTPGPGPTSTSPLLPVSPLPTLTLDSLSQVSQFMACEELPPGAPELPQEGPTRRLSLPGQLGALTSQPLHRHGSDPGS

Row | Compound | hERG Patch Clamp hERG % blk (hERG potassium channel; 1 μM) | hERG Patch Clamp hERG % blk (hERG potassium channel; 10 μM) | inhibition at 10 µM [1]
1 | CC1=C(C(=O)O[C@@H](C)c2ccccc2)C(c2cc3ccccc3o2)n2nnnc2N1 (stereo partly drawn) [PT-059, (S)-1-phenylethyl 7-(benzofuran-2-yl)-5-methyl-4,7-dihydrotetrazolo[1,5-a]pyrimidine-6-carboxylate] | 10.0% | 66.5% | 
2 | CCOC(=O)C1=C(C)NC(C)=C(C(=O)OCC)C1c1sc2ccccc2c1C [PT-116, diethyl 2,6-dimethyl-4-(3-methylbenzo[b]thiophen-2-yl)-1,4-dihydropyridine-3,5-dicarboxylate] | 22.9% | 66.0% | 
3 | CCOC(=O)c1c(C)nc2[nH]ncc2c1-c1ccccc1 [PT-474, ethyl 6-methyl-4-phenyl-1H-pyrazolo[3,4-b]pyridine-5-carboxylate] |  |  | 22%
4 | CCOC(=O)C1=C(C)Nc2nnnn2C1c1ccccc1-n1cncn1 (stereo not shown) [PT-475, ethyl 7-(2-(1H-1,2,4-triazol-1-yl)phenyl)-5-methyl-4,7-dihydrotetrazolo[1,5-a]pyrimidine-6-carboxylate] |  |  | 5.5%
5 | CCOC(=O)C1=C(C)Nc2ccnn2C1c1ccccc1OCCN(C)C (stereo not shown) [PT-478, ethyl 7-(2-(2-(dimethylamino)ethoxy)phenyl)-5-methyl-4,7-dihydropyrazolo[1,5-a]pyrimidine-6-carboxylate] |  |  | 34.3%
6 | CCOC(=O)C1=C(C)Nc2nnnn2C1c1ccccc1Oc1cccc(C(=O)OCC)c1 (stereo not shown) [PT-479, ethyl 7-(2-(3-(ethoxycarbonyl)phenoxy)phenyl)-5-methyl-4,7-dihydrotetrazolo[1,5-a]pyrimidine-6-carboxylate] |  |  | 35.7%
7 | CCOC(=O)C1=C(C)Nc2nnnn2C1c1ccccc1OCc1cccc(C(=O)OC)c1 (stereo not shown) [PT-480, ethyl 7-(2-(3-(methoxycarbonyl)benzyloxy)phenyl)-5-methyl-4,7-dihydrotetrazolo[1,5-a]pyrimidine-6-carboxylate] |  |  | 5.4%
8 | CCOC(=O)C1=C(C)Nc2nnnn2C1c1ccccc1Oc1ccc(-c2nnn[nH]2)cc1 (stereo not shown) [PT-481, ethyl 7-(2-(4-(1H-tetrazol-5-yl)phenoxy)phenyl)-5-methyl-4,7-dihydrotetrazolo[1,5-a]pyrimidine-6-carboxylate] |  |  | 18%
9 | CCOC(=O)C1=C(C)Nc2nnnn2C1c1ccccc1OCc1ccc(C(=O)OCC)cc1 (stereo not shown) [PT-482, ethyl 7-(2-(4-(ethoxycarbonyl)benzyloxy)phenyl)-5-methyl-4,7-dihydrotetrazolo[1,5-a]pyrimidine-6-carboxylate] |  |  | 3.2%
10 | CCOC(=O)C1=C(C)Nc2nnnn2C1c1ccccc1Oc1ccc(C(=O)OCC)cc1 (stereo not shown) [PT-483, ethyl 7-(2-(4-(ethoxycarbonyl)phenoxy)phenyl)-5-methyl-4,7-dihydrotetrazolo[1,5-a]pyrimidine-6-carboxylate] |  |  | 31.8%
11 | CCOC(=O)C1=C(C)Nc2nnnn2C1c1ccccc1N1CCC(C(=O)OCC)CC1 (stereo not shown) [PT-484, ethyl 7-(2-(4-(ethoxycarbonyl)piperidin-1-yl)phenyl)-5-methyl-4,7-dihydrotetrazolo[1,5-a]pyrimidine-6-carboxylate] |  |  | 36.1%
12 | CCOC(=O)C1=C(C)Nc2nnnn2C1c1ccccc1Oc1ccc(C#N)cc1 (stereo not shown) [PT-485, ethyl 7-(2-(4-cyanophenoxy)phenyl)-5-methyl-4,7-dihydrotetrazolo[1,5-a]pyrimidine-6-carboxylate] |  |  | 5.2%
13 | CCOC(=O)C1=C(C)Nc2nnnn2C1c1c(Cl)cccc1Cl (stereo not shown) [PT-486, ethyl 7-(2,6-dichlorophenyl)-5-methyl-4,7-dihydrotetrazolo[1,5-a]pyrimidine-6-carboxylate] |  |  | 30.8%
14 | CCOC(=O)C1=C(C)Nc2nnnn2C1c1c(C)cccc1C (stereo not shown) [PT-487, ethyl 7-(2,6-dimethylphenyl)-5-methyl-4,7-dihydrotetrazolo[1,5-a]pyrimidine-6-carboxylate] |  |  | 20.9%
15 | CCOC(=O)C1=C(C)Nc2ccnn2C1c1c(Br)sc2ccccc12 (stereo not shown) [PT-488, ethyl 7-(2-bromobenzo[b]thiophen-3-yl)-5-methyl-4,7-dihydropyrazolo[1,5-a]pyrimidine-6-carboxylate] |  |  | 82.3%
16 | CCOC(=O)C1=C(C)N(CC(=O)Nc2c(C)cccc2C)c2nnnn2C1c1ccccc1Br (stereo not shown) [PT-490, ethyl 7-(2-bromophenyl)-4-(2-(2,6-dimethylphenylamino)-2-oxoethyl)-5-methyl-4,7-dihydrotetrazolo[1,5-a]pyrimidine-6-carboxylate] |  |  | 7.3%
17 | CCOC(=O)C1=C(C)Nc2ccnn2C1c1ccc(OC)cc1C#N (stereo not shown) [PT-491, ethyl 7-(2-cyano-4-methoxyphenyl)-5-methyl-4,7-dihydropyrazolo[1,5-a]pyrimidine-6-carboxylate] |  |  | -0.9%
18 | CCOC(=O)C1=C(C)Nc2nnnn2C1c1sccc1Br (stereo not shown) [PT-498, ethyl 7-(3-bromothiophen-2-yl)-5-methyl-4,7-dihydrotetrazolo[1,5-a]pyrimidine-6-carboxylate] |  |  | 25.2%
19 | CCOC(=O)C1=C(C)Nc2nnnn2C1c1ccccc1-c1cccc(C#N)c1 (stereo not shown) [PT-499, ethyl 7-(3′-cyanobiphenyl-2-yl)-5-methyl-4,7-dihydrotetrazolo[1,5-a]pyrimidine-6-carboxylate] |  |  | 27.7%

Row | Compound | hERG Patch Clamp hERG % blk (hERG potassium channel; 1 μM) | hERG Patch Clamp hERG % blk (hERG potassium channel; 10 μM) | inhibition at 10 µM [1]
20 | CCOC(=O)C1=C(C)Nc2nnnn2C1c1ccccc1-c1ccc(-c2nnn[nH]2)cc1 (stereo not shown) [PT-500, ethyl 7-(4′-(1H-tetrazol-5-yl)biphenyl-2-yl)-5-methyl-4,7-dihydrotetrazolo[1,5-a]pyrimidine-6-carboxylate] |  |  | 2.7%
21 | CCOC(=O)C1=C(C)Nc2nnnn2C1c1ccc(N(C)C)cc1[N+](=O)[O-] (stereo not shown) [PT-501, ethyl 7-(4-(dimethylamino)-2-nitrophenyl)-5-methyl-4,7-dihydrotetrazolo[1,5-a]pyrimidine-6-carboxylate] |  |  | 2.5%
22 | CCOC(=O)C1=C(C)Nc2ccnn2C1c1ccc(N(C)C)c2ccccc12 (stereo not shown) [PT-502, ethyl 7-(4-(dimethylamino)naphthalen-1-yl)-5-methyl-4,7-dihydropyrazolo[1,5-a]pyrimidine-6-carboxylate] |  |  | 27%
23 | CCOC(=O)C1=C(C)Nc2nnnn2C1c1ccccc1-c1ccc(C#N)cc1 (stereo not shown) [PT-503, ethyl 7-(4′-cyanobiphenyl-2-yl)-5-methyl-4,7-dihydrotetrazolo[1,5-a]pyrimidine-6-carboxylate] |  |  | 29.2%
24 | CCOC(=O)C1=C(C)Nc2nnnn2C1c1ccc(OC)c2ccccc12 (stereo not shown) [PT-504, ethyl 7-(4-methoxynaphthalen-1-yl)-5-methyl-4,7-dihydrotetrazolo[1,5-a]pyrimidine-6-carboxylate] |  |  | 28.2%
25 | COC(=O)C1=C(C)Nc2cc(C)nn2C1c1nc(C)cs1 (stereo not shown) [PT-507, methyl 2,5-dimethyl-7-(4-methylthiazol-2-yl)-4,7-dihydropyrazolo[1,5-a]pyrimidine-6-carboxylate] |  |  | 0.2%
26 | COC(=O)C1=C(C)Nc2cc(C)nn2C1c1cccc2ccccc12 (stereo not shown) [PT-508, methyl 2,5-dimethyl-7-(naphthalen-1-yl)-4,7-dihydropyrazolo[1,5-a]pyrimidine-6-carboxylate] |  |  | 11.6%
27 | COC(=O)C1=C(C)Nc2[nH]nc(C)c2C1c1nc(C)cs1 (stereo not shown) [PT-509, methyl 3,6-dimethyl-4-(4-methylthiazol-2-yl)-4,7-dihydro-1H-pyrazolo[3,4-b]pyridine-5-carboxylate] |  |  | 6.4%
28 | COC(=O)C1=C(C)Nc2[nH]ncc2C1c1sc(Cl)nc1Cl (stereo not shown) [PT-510, methyl 4-(2,4-dichlorothiazol-5-yl)-6-methyl-4,7-dihydro-1H-pyrazolo[3,4-b]pyridine-5-carboxylate] |  |  | 19.9%
29 | COC(=O)C1=C(C)Nc2ccnn2C1c1nc(C)cs1 (stereo not shown) [PT-511, methyl 5-methyl-7-(4-methylthiazol-2-yl)-4,7-dihydropyrazolo[1,5-a]pyrimidine-6-carboxylate] |  |  | 19.5%
30 | COC(=O)C1=C(C)Nc2nnnn2C1c1cccs1 (stereo not shown) [PT-513, methyl 5-methyl-7-(thiophen-2-yl)-4,7-dihydrotetrazolo[1,5-a]pyrimidine-6-carboxylate] |  |  | 10.5%
31 | COC(=O)C1=C(C)Nc2[nH]ncc2C1c1nc(C)cs1 (stereo not shown) [PT-515, methyl 6-methyl-4-(4-methylthiazol-2-yl)-4,7-dihydro-1H-pyrazolo[3,4-b]pyridine-5-carboxylate] |  |  | 10.8%
32 | CCOC(=O)c1ccc(COc2ccccc2C2C(C(=O)OC)=C(C)Nc3nnnn32)cc1 (stereo not shown) [PT-516, methyl 7-(2-(4-(ethoxycarbonyl)benzyloxy)phenyl)-5-methyl-4,7-dihydrotetrazolo[1,5-a]pyrimidine-6-carboxylate] |  |  | 20.2%
33 | COC(=O)C1=C(C)Nc2nnnn2C1c1c(Br)sc2ccc(Cl)cc12 (stereo not shown) [PT-517, methyl 7-(2-bromo-5-chlorobenzo[b]thiophen-3-yl)-5-methyl-4,7-dihydrotetrazolo[1,5-a]pyrimidine-6-carboxylate] |  |  | 43.3%
34 | COC(=O)C1=C(C)Nc2nnnn2C1c1ccccc1I (stereo not shown) [PT-519, methyl 7-(2-iodophenyl)-5-methyl-4,7-dihydrotetrazolo[1,5-a]pyrimidine-6-carboxylate] |  |  | 27.3%
35 | COC(=O)C1=C(C)Nc2nnnn2C1c1sc2ccccc2c1Br (stereo not shown) [PT-520, methyl 7-(3-bromobenzo[b]thiophen-2-yl)-5-methyl-4,7-dihydrotetrazolo[1,5-a]pyrimidine-6-carboxylate] |  |  | 78.4%
36 | COC(=O)C1=C(C)Nc2nnnn2C1c1ccc(-c2ccc(OC)cc2)s1 (stereo not shown) [PT-521, methyl 7-(5-(4-methoxyphenyl)thiophen-2-yl)-5-methyl-4,7-dihydrotetrazolo[1,5-a]pyrimidine-6-carboxylate] |  |  | 37.5%
37 | COC(=O)C1=C(C)Nc2nnnn2C1c1ccc(Br)s1 (stereo not shown) [PT-522, methyl 7-(5-bromothiophen-2-yl)-5-methyl-4,7-dihydrotetrazolo[1,5-a]pyrimidine-6-carboxylate] |  |  | 37.7%
38 | CC1=C(C(=O)OCc2cccs2)C(c2cccc3ccccc23)n2nnnc2N1 (stereo not shown) [PT-525, thiophen-2-ylmethyl 5-methyl-7-(naphthalen-1-yl)-4,7-dihydrotetrazolo[1,5-a]pyrimidine-6-carboxylate] |  |  | 67.5%
